Results reported in patent publication US11040038B2, “Methods for treating diseases associated with abnormal ACVR1 expression and ACVR1 inhibitors for use in the same” (Sumitomo Dainippon Pharma Oncology, Inc., priority 2018, dated 2021).
Substitutions are numbered along the chain they refer to.

Experiments:
Assay in all cases: ACVR1 kinase assay, casein substrate, 33P-ATP, filter binding
Type in all cases: biochemical
Details in all cases: 10 μM ATP
ACVR1 R258G = molecular target: T1, ACVR1 R258G (Homo sapiens, UniProt Q04771, R258G)
T1 sequence (Q04771 21-509 R258G): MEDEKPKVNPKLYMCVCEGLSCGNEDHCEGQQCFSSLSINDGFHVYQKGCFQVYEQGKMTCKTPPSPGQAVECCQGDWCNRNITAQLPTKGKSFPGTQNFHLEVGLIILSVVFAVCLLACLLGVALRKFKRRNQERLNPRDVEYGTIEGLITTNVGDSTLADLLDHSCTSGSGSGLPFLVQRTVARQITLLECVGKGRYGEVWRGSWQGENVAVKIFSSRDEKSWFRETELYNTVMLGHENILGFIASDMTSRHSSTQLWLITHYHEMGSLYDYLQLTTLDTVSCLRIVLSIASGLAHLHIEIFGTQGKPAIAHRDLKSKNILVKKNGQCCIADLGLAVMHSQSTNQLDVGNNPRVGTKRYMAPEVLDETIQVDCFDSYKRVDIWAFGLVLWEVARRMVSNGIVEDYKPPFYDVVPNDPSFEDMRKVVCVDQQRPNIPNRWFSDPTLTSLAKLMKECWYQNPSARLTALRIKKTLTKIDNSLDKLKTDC
Experimental: (§1) In brief, casein-based substrates were prepared. The respective ACVR1 kinase was added to the substrate mixture and hot/cold 33P-ATP (10 μM) was added to initiate the reaction. The activity was then measured with a filter binding method.
(§2) The IC50 values against the kinases are listed below in Table 3.

ACVR1 G328V = molecular target: T2, ACVR1 G328V (Homo sapiens, UniProt Q04771, G328V)
T2 sequence (Q04771 21-509 G328V): T1 sequence (Q04771 21-509 R258G) with G238R, G308V
Experimental: as §1, §2

ACVR1 R206H = molecular target: T3, ACVR1 R206H (Homo sapiens, UniProt Q04771, R206H)
T3 sequence (Q04771 21-509 R206H): T1 sequence (Q04771 21-509 R258G) with R186H, G238R
Experimental: as §1, §2

ACVR1 Wild Type = molecular target: T4, ACVR1 Wild Type (Homo sapiens, UniProt Q04771)
T4 sequence (Q04771 21-509): T1 sequence (Q04771 21-509 R258G) with G238R
Experimental: as §1, §2

IC50 (ACVR1 R258G): 51.6 nM
IC50 (ACVR1 G328V): 13.8 nM
IC50 (ACVR1 R206H): 3.8 nM
IC50 (ACVR1 Wild Type): 4.5 nM
SMILES: COc1cc(Nc2nccc(Nc3cccnc3-c3ccccn3)n2)ccc1N1CCN(C)CC1 [Compound 2, N^4-(2,2′-bipyridin-3-yl)-N^2-(3-methoxy-4-(4-methylpiperazin-1-yl)phenyl)pyrimidine-2,4-diamine]
